“Also recorded” adds a separate entry of the source.
Columns and labels:
[1] = test system: porcine model of myocardial infarction; test: Porcine model of myocardial infarction (90 min LAD occlusion, reperfusion), pilot study monitored by MRI; assay type: in vivo; settings: for Ejection fraction (EF) / Vasodilatory dysfunction (remote myocardium T2) / Inflammation or edema (T2) / Ventricular volume (end-diastolic and end-systolic volumes): pigs N=2, oral 100 mg/kg daily; for Inflammation or edema (T2): infarct zone; for Ventricular volume (end-diastolic and end-systolic volumes): up to 4 weeks; for Hemorrhage (from T2* image): pigs N=2, oral pre-loading then 100 mg/kg daily, MRI day 2 to week 4
Experimental: Post-infarct remodeling is a complex process with various pathophysiological changes occurring simultaneously (19) whose inter-dependence has not been completely understood in vivo. An initial study was performed to assess evolution of: 1) edema (T2); 2) hemorrhage (T2*); 3) cardiac function; 4) infarct/MVO size and 5) vasodilatory function in a porcine model of myocardial infarction. The left anterior descending artery (LAD) was occluded for 90 min followed by reperfusion; this model consistently produced anteroseptal transmural infarcts characterized by MVO. Pattern of progression of edema, hemorrhage and infarct/MVO was apparent on T2-, T2*-maps and contrast-enhanced (CE) images as shown in a representative animal (FIG. 1). Post-infarct LV remodeling was monitored by observing the cumulative time course of quantitative MRI parameters (FIG. 2). […] Vasodilator function (or perfusion reserve) was evaluated with T2-based Blood-oxygen-level-dependent (BOLD) imaging using a pharmacological vasodilator (FIG. 4). […] The failure of remote vasodilatory function to regain control levels in the chronic phase of AMI potentially served as a predictor of subsequent adverse LV remodeling. […] Importantly, the evolution of MRI parameters was well correlated with histological features, similar to patterns seen in humans (24); this justified using a large animal model, e.g., porcine, for translation to the clinic. Two papers based on this work were published in MRM (32, 76).
Excess tissue iron accumulation can be lethal as free iron is toxic in nature. It has been speculated that iron chelation may be beneficial in acute coronary syndromes and that early treatment can limit ischemia-reperfusion injury and also reduce infarct size (83, 84). However, the role of iron chelation in hemorrhagic infarction has not yet been explored. In the present example, the cardioprotective properties of the iron chelating agent deferiprone (DFP) were explored in a porcine model of myocardial infarction. Deferiprone offered several advantages in that it is a very small molecule, both hydrophilic and lipophilic and highly membrane permeable; it can readily enter mitochondria and may access intracellular labile iron. In a pilot study, DFP was administered (orally) to pigs (N=2) a few hours before a 90 min LAD occlusion (pre-loading), and treatment was continued with a daily dose of 100 mg/kg (85). Animals were then monitored with a comprehensive MRI exam from day 2 to week 4. […] The result shown in FIG. 14 compared to FIG. 1 show the neutralizing capacity of DFP.

[2] = test system: porcine model of myocardial infarction; test: Hemorrhagic myocardial infarction in porcine model, remodeling monitored by CMR (Example 3); assay type: in vivo
Experimental: A quantitative study was done to investigate the effect of the deferiprone (DFP) on the hemorrhagic byproducts in tissue in a porcine model of myocardial infarction, and to monitor remodeling by cardiovascular magnetic resonance (CMR).
The study involved two groups of animals that were subjected to a 90 min balloon occlusion of the left anterior descending artery (LAD) followed by reperfusion—untreated (N=2) and DFP treated (N=2). DFP was administered (orally) a few hours (about 1-2 hours) before the procedure (pre-loading) and treatment was continued with a daily dose of 100 mg/kg. Imaging was performed on a 3T MRI scanner (MR 750, GE Healthcare) pre-AMI (healthy), day 2, week 1, week 2 and week 4 post-AMI. Edema was evaluated by T2 quantification using a T2-prepared spiral sequence and hemorrhage was identified by T2* using a multi-echo gradient-echo acquisition. Infarct assessment was performed by delayed hyperenhancement (DHE) using an IR-GRE sequence.

[3] = test system: Langendorff heart preparation; settings: constant deferiprone infusion of 50 μM, ex vivo; cited from earlier work
porcine hearts [4] = test: Artificially induced hemorrhage in porcine hearts by intracoronary injection of collagenase after 8 min ischemia; assay type: in vivo, Yorkshire pigs; settings: for Epicardial and intramyocardial hemorrhage: sacrifice at 24 hrs
Experimental: (§1) 21 Yorkshire pigs (19-31 kg) were included in the study and 7-9 ml phosphate-buffered solution containing collagenase was injected using an over-the-wire angioplasty balloon catheter that was advanced to mid LAD after 2nd diagonal branch; balloon inflation was maintained for 8 min (ischemia). Six doses (250, 600, 800, 1200, 1600, and 3200 mcg) of collagenase were administered in equally divided groups; there was no mortality attributable to collagenase infusion. Animals were sacrificed at 24 hrs and hearts were explanted for histological analysis. […] After establishing this model, a pilot study was initiated to artificially induce hemorrhage in one animal subjected to a 45 min LAD occlusion, which is inherently non-hemorrhagic. Collagenase was injected immediately after balloon deflation i.e. during reperfusion at an intermediate dose of 1000 mcg. […] This was unlike the untreated 45 min infarcts studied. Currently, the causality between hemorrhage and MVO is unknown. The blood spilt in the interstitium might have compressed the microvasculature that was already vulnerable due to the initial ischemic insult; in other words, hemorrhage may have created the MVO.

porcine hearts [5] = test: Collagenase injection during reperfusion after 45 min LAD occlusion, MRI at day 2; assay type: in vivo, pig; settings: 1000 mcg during reperfusion, day 2 post-AMI, one animal
Experimental: as §1

[6] = 90 min LAD occlusion, listed as DFP, 100 mg/kg
[7] = DFP treated N=2, 100 mg/kg daily

For `Cc1c(O)c(=O)ccn1C` [deferiprone], the “Ejection fraction (EF)” value ([1]; 90 min LAD occlusion) was “reduced gradually”, the “Vasodilatory dysfunction (remote myocardium T2)” value ([1]; 90 min LAD occlusion) was “impaired vasodilatory function only at day 2” and the “Inflammation or edema (T2)” value ([1]; 90 min LAD occlusion, 100 mg/kg) was “substantially subsided at week 4; also recorded: substantially subsided beyond week 2”. The “Inflammation or edema (T2)” value [1, 6] was “substantially reduced by week 4”, the “Ventricular volume (end-diastolic and end-systolic volumes)” value ([1]; 90 min LAD occlusion) was “Relatively unchanged” and the “Ventricular volume (end-diastolic and end-systolic volumes)” value [1, 6] was “relatively unchanged”. The “Ejection fraction (EF)” value [1, 6] was “gradually depressed by week 4”, the “Vasodilatory dysfunction (remote myocardium T2)” value [1, 6] was “observed only at day 2” and the “Hemorrhage (from T2* image)” value ([1]; 90 min LAD occlusion) was “observed only on day 2 but resolved by week 1; also recorded: only observed on day 2, which later resolved”. The “Hemorrhage (from T2* image)” value ([1]; 90 min LAD occlusion, listed as DFP) was “observed only on day 2 and by week 1 it had completely resolved”, the Side effects ([1]; pigs, oral 100 mg/kg daily, throughout the 4 weeks of observation) was “No side effects” and the “Microvascular obstruction (MVO)” value ([1]; representative animal, 90 min LAD occlusion, seen on day 2) was “partially resolved by week 1”. For the same compound, the “Ejection fraction (EF)” value [2, 7] was “depressed by week 4”, the “End-diastolic and end-systolic volumes” value [2, 7] was “relatively unchanged” and the “Inflammation and edema (T2)” value [2, 7] was “substantially reduced by week 4”. The “Microvascular obstruction (MVO)” value ([2]; DFP treated N=2, 100 mg/kg daily, seen on day 2) was “partially resolved by week 1”, the “Hemorrhage (as indicated by T2* image)” value ([2]; DFP treated N=2, oral pre-loading then 100 mg/kg daily, 90 min LAD occlusion, listed as DFP) was “observed only on day 2 and by week 1 it had completely resolved” and the Free radical activity [3] was “reduction”.
With collagenase the “Mortality attributable to collagenase infusion” value (porcine hearts [4]; 250-3200 mcg intracoronary, 21 pigs) was “no mortality”, the “Epicardial and intramyocardial hemorrhage” value (porcine hearts [4]; 800-1600 mcg intracoronary) was “mild-moderate” and the “Epicardial and intramyocardial hemorrhage” value (porcine hearts [4]; 3200 mcg intracoronary) was “severe”. For the same compound, the “Infarction (histology)” value (porcine hearts [4]; intracoronary collagenase after 8 min ischemia) was “No infarction”, the “Dose resulting in hemorrhage on explanted hearts” value (porcine hearts [4]; intracoronary, after 8 min ischemic episode) was over 800 µg and the “Epicardial and intramyocardial hemorrhage” value (porcine hearts [4]; up to 600 mcg intracoronary) was “none or mild focal”. For the same compound, the “Hemorrhage on T2*-weighted images” value (porcine hearts [5]) was “Signal void”, the “MVO on DHE images” value (porcine hearts [5]) was “corresponded with an MVO” and the “Hemorrhage on T2*-weighted images” value (porcine hearts [5]; listed as Collagenase) was “signal void”. For the same compound, the “MVO on DHE images” value (porcine hearts [5]; listed as Collagenase) was “presence of MVO”.
